# Data taken from patent publication US12692254B2, “Benzimidazole inhibitors of PAD enzymes” (BRISTOL-MYERS SQUIBB COMPANY, priority 2018, dated 2026).
# Molecular target: human PAD4 (hPAD4) (Homo sapiens, UniProt Q9UM07)
# Test: RFMS human PAD4 functional assay (rapid-fire mass spectrum)
# Assay type: biochemical
# Conditions: 5 nM hPAD4 enzyme, 250 μM BAEE, 50 μM Calcium; 30 min preincubation, 90 min reaction at 37° C.
# In short: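 PAD4 (10 nM) preincubated 30 min with compound (top final 50 μM), then BAEE substrate added in pH 7.5 HEPES buffer with DTT, 50 μM calcium, TPEN; 90 min at 37° C. After TCA quench, citrulline derivatized with phenyl glyoxal (4 mM final, 30 min, 37° C) and quantified by RapidFire MS against internal standard.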
# human PAD4 (hPAD4), sequence (Q9UM07 whole entry): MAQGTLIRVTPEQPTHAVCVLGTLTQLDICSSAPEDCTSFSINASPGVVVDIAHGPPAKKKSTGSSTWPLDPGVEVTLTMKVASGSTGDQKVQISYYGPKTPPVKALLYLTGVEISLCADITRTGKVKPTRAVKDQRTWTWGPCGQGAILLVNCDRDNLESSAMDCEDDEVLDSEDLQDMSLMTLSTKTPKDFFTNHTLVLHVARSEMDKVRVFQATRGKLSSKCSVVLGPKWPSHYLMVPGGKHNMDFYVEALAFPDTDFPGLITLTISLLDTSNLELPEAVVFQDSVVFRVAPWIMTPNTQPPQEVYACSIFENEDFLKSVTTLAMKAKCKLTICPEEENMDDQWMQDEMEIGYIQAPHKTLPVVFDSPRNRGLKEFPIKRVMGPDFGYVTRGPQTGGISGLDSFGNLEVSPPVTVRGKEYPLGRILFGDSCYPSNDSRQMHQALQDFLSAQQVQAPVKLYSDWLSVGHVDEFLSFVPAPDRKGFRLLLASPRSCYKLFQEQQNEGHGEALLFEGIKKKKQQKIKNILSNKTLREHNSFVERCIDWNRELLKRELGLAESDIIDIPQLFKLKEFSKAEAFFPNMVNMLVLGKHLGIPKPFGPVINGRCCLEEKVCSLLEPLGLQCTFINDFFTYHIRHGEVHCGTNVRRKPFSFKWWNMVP
row,SMILES,IC50 [µM]
1,"COc1cc(C(=O)N2C[C@H](N)C[C@@H](F)C2)cc2nc(-c3cc4ccccc4n3CC3CC3)n(CC3CC(=O)N(C)C3)c12 (mixture of isomers) [Example 281, 4-({5-[(3R,5R)-3-amino-5-fluoropiperidine-1-carbonyl]-2-[1-(cyclopropylmethyl)-1H-indol-2-yl]-7-methoxy-1H-1,3-benzodiazol-1-yl}methyl)-1-methylpyrrolidin-2-one]",0.649
2,"COc1cc(C(=O)N2CC3CCC2[C@@H]3N)cc2nc(-c3cc4cccnc4n3CC3CC3)n([C@H]3C[C@H](NC(C)=O)C3)c12 (stereo partly drawn) [Example 302, N-[(1r,3r)-3-{5-[(1R,4R,7R)-7-amino-2-azabicyclo[2.2.1]heptane-2-carbonyl]-2-[1-(cyclopropylmethyl)-1H-pyrrolo[2,3-b]pyridin-2-yl]-7-methoxy-1H-1,3-benzodiazol-1-yl)cyclobutyl]acetamide]",1.21
3,"COc1cc(C(=O)N2C[C@H]3CC[C@@H]2[C@@H]3N)cc2nc(-c3cc4cccnc4n3CC3CC3)n(CC3CN(c4ccc(C#N)cc4)C3)c12 [Example 25, 4-[3-({5-[(1R,4R,7R)-7-amino-2-azabicyclo[2.2.1]heptane-2-carbonyl]-2-[1-(cyclopropylmethyl)-1H-pyrrolo[2,3-b]pyridin-2-yl]-7-methoxy-1H-1,3-benzodiazol-1-yl}methyl)azetidin-1-yl]benzonitrile]",0.072
4,"COc1cc(C(=O)N2CC3CCC2[C@@H]3N)cc2nc(-c3cc4ccccc4n3CC3CC3)n(Cc3nc[nH]n3)c12 (stereo partly drawn) [Example 510, (7R)-2-{2-[1-(cyclopropylmethyl)-1H-indol-2-yl]-7-methoxy-1-[(1H-1,2,4-triazol-3-yl)methyl]-1H-1,3-benzodiazole-5-carbonyl}-2-azabicyclo[2.2.1]heptan-7-amine]",0.326
5,"COc1cc(C(=O)N2CC3CCC2[C@@H]3N)cc2nc(-c3cc4ccccc4n3CC3CC3)n(CC3CN(C(=O)c4ccn(C)c(=O)c4)C3)c12 (stereo partly drawn) [Example 433, 4-[3-({5-[(7R)-7-amino-2-azabicyclo[2.2.1]heptane-2-carbonyl]-2-[1-(cyclopropylmethyl)-1H-indol-2-yl]-7-methoxy-1H-1,3-benzodiazol-1-yl}methyl)azetidine-1-carbonyl]-1-methyl-1,2-dihydropyridin-2-one]",0.031
6,"COc1cc(C(=O)N2C[C@H]3CC[C@@H]2[C@@H]3N)cc2nc(-c3cc4cccnc4n3C)n(C[C@H]3CCN(c4ccnc(C)n4)C3)c12 [Example 213, (1R,4R,7R)-2-(7-methoxy-2-{1-methyl-1H-pyrrolo[2,3-b]pyridin-2-yl}-1-{[(3S)-1-(2-methylpyrimidin-4-yl)pyrrolidin-3-yl]methyl}-1H-1,3-benzodiazole-5-carbonyl)-2-azabicyclo[2.2.1]heptan-7-amine]",0.099
7,"COc1cc(C(=O)N2C[C@H](N)C[C@@H](F)C2)cc2nc(-c3cc4cccnc4n3CC3CC3)n(Cc3cnn(-c4cccc(O)n4)c3)c12 [Example 407, 6-[4-({5-[(3R,5R)-3-amino-5-fluoropipendine-1-carbonyl]-2-[1-(cyelopropylmethyl)-1H-pyrrolo[2,3-b]pyridin-2-yl]-7-methoxy-1H-1,3-benzodiazol-1-yl}methyl)-1H-pyrazol-1-yl]pyridin-2-ol]",0.072
8,"COc1cc(C(=O)N2C[C@H]3CC[C@@H]2[C@@H]3N)cc2nc(-c3cc4cccnc4n3CC3CC3)n(C3CN(c4ccnc(C)n4)C3)c12 [Example 77, (1R,4R,7R)-2-{2-[1-(cyclopropylmethyl)-1H-pyrrolo[2,3-b]pyridin-2-yl]-7-methoxy-1-[1-(2-methylpyrimidin-4-yl)azetidin-3-yl]-1H-1,3-benzodiazole-5-carbonyl}-2-azabicyclo[2.2.1]heptan-7-amine]",0.307
9,"CCc1ccccc1-c1nc2cc(C(=O)N3C[C@H]4CC[C@@H]3[C@@H]4N)cc(OC)c2n1CC1CN(c2cncc(C#N)c2)C1 [Example 312, 5-[3-({5-[(1R,4R,7R)-7-amino-2-azabicyclo[2.2.1]heptane-2-carbonyl]-2-(2-ethylphenyl)-7-methoxy-1H-1,3-benzodiazol-1-yl}methyl)azetidin-1-yl]pyridine-3-carbonitrile]",0.38
10,"COc1cc(C(=O)N2C[C@H]3CC[C@@H]2[C@@H]3N)cc2nc(-c3cc4ccccc4n3CC3CC3)n(CC3CN(C(=O)c4cccn4C)C3)c12 [Example 148, (1R,4R,7R)-2-{2-[1-(cyclopropylmethyl)-1H-indol-2-yl]-7-methoxy-1-{[1-(1-methyl-1H-pyrrole-2-carbonyl)azetidin-3-yl]methyl}-1H-1,3-benzodiazole-5-carbonyl}-2-azabicyclo[2.2.1]heptan-7-amine]",0.019
11,"COc1cc(C(=O)N2CC3CCC2[C@@H]3N)cc2nc(-c3cc4ccccc4n3CC3CC3)n(CC3CN(C(=O)c4ccnc(F)c4)C3)c12 (stereo partly drawn) [Example 419, (7R)-2-{2-[1-(cyclopropylmethyl)-1H-indol-2-yl]-1-{[1-(2-fluoropyridine-4-carbonyl)azetidin-3-yl]methyl}-7-methoxy-1H-1,3-benzodiazole-5-carbonyl}-2-azaticyclo[2.2.1]heptan-7-amine]",0.016

# Second part, the compound after the results:
row,IC50 [µM],SMILES
1,0.638,"COc1cc(C(=O)N2C[C@H]3CC[C@@H]2[C@@H]3N)cc2nc(-c3cc4cccnc4n3CC3CC3)n(CC3CN(c4ccccc4C(C)=O)C3)c12 [Example 85, 1-{2-[3-({5-[(1R,4R,7R)-7-amino-2-azabicyclo[2.2.1]heptane-2-carbonyl]-2-[1-(cyclopropylmethyl)-1H-pyrrolo[2,3-b]pyridin-2-yl]-7-methoxy-1H-1,3-benzodiazol-1-yl}methyl)azetidin-1-yl]phenyl}ethan-1-one]"
2,0.078,"COc1cc(C(=O)N2C[C@H]3CC[C@@H]2[C@@H]3N)cc2nc(-c3cc4ccccc4n3C)n(CC3CN(c4ccnc(C)n4)C3)c12 [Example 6, ((1R,4R,7R)-7-amino-2-azabicyclo[2.2.1]heptan-2-yl)(7-methoxy-2-(1-methyl-1H-indol-2-yl)-1-((1-(2-methylpyrimidin-4-yl)azetidin-3-yl)methyl)-1H-benzo[d]imidazol-5-yl)methanone]"
3,0.035,"COc1cc(C(=O)N2C[C@H]3CC[C@@H]2[C@@H]3N)cc2nc(-c3cc4cccnc4n3CC3CC3)n(C[C@H]3CCN(c4ccnc(C#N)n4)C3)c12 [Example 204, 4-[(3S)-3-({5-[(1R,4R,7R)-7-amino-2-azabicyclo[2.2.1]heptane-2-carbonyl]-2-[1-(cyclopropylmethyl)-1H-pyrrolo[2,3-b]pyridin-2-yl]-7-methoxy-1H-1,3-benzodiazol-1-yl}methyl)pyrrolidin-1-yl]pyrimidine-2-carbonitrile]"
4,0.031,"COc1cc(C(=O)N2C[C@H]3CC[C@@H]2[C@@H]3N)cc2nc(-c3cc4cccnc4n3CC3CC3)n(CC3CN(c4ccnc(C5CC5)n4)C3)c12 [Example 105, (1R,4R,7R)-2-{2-[1-(cyclopropylmethyl)-1H-pyrrolo[2,3-b]pyridin-2-yl]-1-{[1-(2-cyclopropylpyrimidin-4-yl)azetidin-3-yl]methyl}-7-methoxy-1H-1,3-benzodiazole-5-carbonyl}-2-azabicyclo[2.2.1]heptan-7-amine]"
5,0.152,"COc1cc(C(=O)N2C[C@H]3CC[C@@H]2[C@@H]3N)cc2nc(-c3cc4cccnc4n3CC3CC3)n(CC3CN(c4ccnc(C)c4)C3)c12 [Example 51, (1R,4R,7R)-2-{2-[1-(cyclopropylmethyl)-1H-pyrrolo[2,3-b]pyridin-2-yl]-7-methoxy-1-{[1-(2-methylpyridin-4-yl)azetidin-3-yl]methyl}-1H-1,3-benzodiazole-5-carbonyl}-2-azabicyclo[2.2.1]heptan-7-amine]"
6,0.068,"CCCC(=O)N1CC(Cn2c(-c3cc4cccnc4n3CC3CC3)nc3cc(C(=O)N4C[C@H]5CC[C@@H]4[C@@H]5N)cc(OC)c32)C1 [Example 118, 1-[3-({5-[(1R,4R,7R)-7-amino-2-azabicyclo[2.2.1]heptane-2-carbonyl]-2-[1-(cyclopropylmethyl)-1H-pyrrolo[2,3-b]pyridin-2-yl]-7-methoxy-1H-1,3-benzodiazol-1-yl}methyl)azetidin-1-yl]butan-1-one]"
7,0.021,"COc1cc(C(=O)N2C[C@H]3CC[C@@H]2[C@@H]3N)cc2nc(-c3cc4ccc(Cl)cc4n3CC3CC3)n(CC3CN(c4ccnc(C)n4)C3)c12 [Example 9, (1R,4R,7R)-2-{2-[6-chloro-1-(cyclopropylmethyl)-1H-indol-2-yl]-7-methoxy-1-{[1-(2-methylpyrimidin-4-yl)azetidin-3-yl]methyl}-1H-1,3-benzodiazole-5-carbonyl}-2-azabicyclo[2.2.1]heptan-7-amine]"
8,0.315,"COc1cc(C(=O)N2C[C@H]3CC[C@@H]2[C@@H]3N)cc2nc(-c3cc4cccnc4n3CC3CC3)n(CC3CCN(C(=O)c4ccncn4)CC3)c12 [Example 233, (1R,4R,7R)-2-{2-[1-(cyclopropylmethyl)-1H-pyrrolo[2,3-b]pyridin-2-yl]-7-methoxy-1-{[1-(pyrimidine-4-carbonyl)piperidin-4-yl]methyl}-1H-1,3-benzodiazole-5-carbonyl}-2-azabicyclo[2.2.1]heptan-7-amine]"
9,0.583,"COc1cc(C(=O)N2C[C@H]3CC[C@@H]2[C@@H]3N)cc2nc(-c3cc4cccnc4n3CC3CC3)n(C3CN(C(=O)c4ccncc4)C3)c12 [Example 189, (1R,4R,7R)-2-{2-[1-(cyclopropylmethyl)-1H-pyrrolo[2,3-b]pyridin-2-yl]-7-methoxy-1-[1-(pyridine-4-carbonyl)azetidin-3-yl]-1H-1,3-benzodiazol-5-carbonyl}-2-azabicyclo[2.2.1]heptan-7-amine]"
10,0.053,"COc1cc(C(=O)N2C[C@H](N)C[C@@H](F)C2)cc2nc(-c3cc4cccnc4n3CC3CC3)n(Cc3cnn(-c4cnccn4)c3)c12 [Example 397, (3R,5R)-1-{2-[1-(cyclopropylmethyl)-1H-pyrrolo[2,3-b]pyridin-2-yl]-7-methoxy-1-{[1-(pyrazin-2-yl)-1H-pyrazol-4-yl]methyl}-1H-1,3-benzodiazole-5-carbonyl}-5-fluoropiperidin-3-amine]"
